Assay results taken from PMC11565411, “Proinsulin C-peptide is a major source of HLA-DQ8 restricted hybrid insulin peptides recognized by human islet-infiltrating CD4^+ T cells” (PNAS Nexus, 2024).

Experiments:
T cell avatar A_4_8 [1] = test: T cell avatar NanoLuciferase response to synthetic peptide; format: cell-based, human; conditions: highest concentration tested 20 μM
Description: (§1) Briefly, we used CRISPR/Cas9 to generate a variant of the human T cell line Jurkat that was deficient in TRAC, TRBC, and CD4. […] This parental Jurkat line was then transduced with the TRAV and TRBV constructs that express the TRAV and TRBV genes that form the TCR expressed by human islet-infiltrating CD4^+ T cells. […] Transduced cells expressing CD3 and TCR were purified by flow cytometry or magnetic bead enrichment. Briefly, cells were resuspended in viral supernatant at 1–2 × 10^6/ml with 5 μg/ml polybrene. Cells were centrifuged at 1,200 rpm (300 g) for 60 min at room temperature, then diluted 1:1 in fresh medium and incubated overnight at 37 °C, 5% CO2. Flow cytometry was performed on a Becton Dickinson LSR Fortessa to determine the proportion of CD3 and TCR expressing cells. The following antihuman mAbs were used for FACS staining: CD3-PE (UCHT1, BD Biosciences), and anti-TCRαβ-AF647 (IP26, BioLegend). Cells were stained with the appropriate mAb in phosphate buffered saline (PBS) 0.1% foetal bovine serum (FBS) for 20 min on ice, then washed twice. Dead cells were excluded by propidium iodide staining. Compensation settings were determined using single-color controls. TCR and CD3 expressing cells were purified by FACS or using REALease CD3 Microbead Kit (Miltenyi) following the manufacturer's instructions. All Jurkat T cell avatars used were >85% CD3^+/TCR^+.
(§2) The HIP super-pool bacteria were cultured from frozen glycerol stock in LB media with antibiotics at 37 °C with agitation 210 rpm. The overnight HIP-expressing bacteria cultures were diluted to an OD600 of 0.06 and grown in 48-well plates in 200 μl LB medium with antibiotics until an OD600 of 0.5 was reached. […] After 22–24 h of coculture, the NanoLuciferase activity was measured using the Nano-Glo Luciferase assay (Promega) according to the manufacturer's instructions. Luminescence was measured on a plate reader (Enspire Perkin Elmer). Responses are reported as the Δluciferase, which is calculated by subtracting the average background (no antigen) luciferase reading measured in the negative control cultures from the response measured in the other treatments.
(§3) Peptides (Genscript) were dissolved in dimethyl sulfoxide (DMSO) to 5.0 mM, aliquoted and stored at −80 °C. The CD4^+ T cell avatars' responses to peptides were measured as described above; except synthetic peptides were used as antigens, instead of E. coli and the antigen/EBV cells were not cultured overnight before the T cell avatars were added. A T cell's response to antigen was measured as luciferase activity using the Nano-Glo Luciferase assay system (Promega) according to the manufacturer's instructions (as above). The HLA-restriction of the HIP-specific CD4^+ T cell clones was determined in a two-step process as described previously ([10]). […]

T cell avatar A_4_7 [2] = test: as above; format: cell-based, human; conditions: highest concentration tested 20 μM
Description: as §1, §2, §3

[3] = system: HIP-specific T cell avatars; test: T cell avatar NanoLuciferase response, panel of HIP-specific avatars; format: cell-based, human; conditions: nine HIP-specific avatars; highest concentration 20 μM; weak left-hand response in 3 of 9 avatars; very weak C-peptide response in three cases
Procedure: as §2, with “reached. Protein expression was induced by adding isopropyl β-D-thiogalactopyranoside (2.0 mM, Sigma). Incubation was continued for another 4 h at 37 °C in a shaking incubator.” for “reached.”
Peptides (Genscript) were dissolved in dimethyl sulfoxide (DMSO) to 5.0 mM, aliquoted and stored at −80 °C. The CD4^+ T cell avatars' responses to peptides were measured as described above; except synthetic peptides were used as antigens, instead of E. coli and the antigen/EBV cells were not cultured overnight before the T cell avatars were added. […] The T cell avatar's responses were measured as above. […]

[4] = system: T cell avatar A_4_2 (Jurkat expressing TCR from human islet-infiltrating CD4+ T cell, Donor A); test: T cell avatar NanoLuciferase response to synthetic peptide; format: cell-based; conditions: highest concentration tested 20 μM
Description: Briefly, we used CRISPR/Cas9 to generate a variant of the human T cell line Jurkat that was deficient in TRAC, TRBC, and CD4. […] This parental Jurkat line was then transduced with the TRAV and TRBV constructs that express the TRAV and TRBV genes that form the TCR expressed by human islet-infiltrating CD4^+ T cells. […] Transduced cells expressing CD3 and TCR were purified by flow cytometry or magnetic bead enrichment. Briefly, cells were resuspended in viral supernatant at 1–2 × 10^6/ml with 5 μg/ml polybrene. Cells were centrifuged at 1,200 rpm (300 g) for 60 min at room temperature, then diluted 1:1 in fresh medium and incubated overnight at 37 °C, 5% CO2. […] Compensation settings were determined using single-color controls. […]
as §2, with “rpm.” for “rpm. The overnight HIP-expressing bacteria cultures were diluted to an OD600 of 0.06 and grown in 48-well plates in 200 μl LB medium with antibiotics until an OD600 of 0.5 was reached.”, “treatments. […]” for “treatments.”

T cell avatar A_4_6 = conditions: previous characterisation, clone A3.10 (A_4_6); ref [15, 34]; cited from earlier work
Description: (§4) Supplement pgae491_supplementary_data.docx, table 6: Supplementary Table 6. Summary of previous characterisation of human islet-infiltrating CD4^+ T cells. | column: HLA-restriction

T cell avatar A_4_5 = conditions: previous characterisation, clone A4.5 (A_4_5); ref [15, 34]; cited from earlier work
Description: as §4

T cell avatar K_4_161 = test: T cell avatar NanoLuciferase response to synthetic peptide; format: cell-based, human
Description: as §1, §2, §3

[5] = system: T cell avatar A_4_2 (Jurkat expressing TCR from human islet-infiltrating CD4+ T cell, Donor A); conditions: previous characterisation, clone A1.9 (A_4_2); ref [5, 34]; cited from earlier work
Description: as §4

T cell avatar A_4_8 [6] = conditions: previous characterisation, clone A5.8 (A_4_8); ref [5]; cited from earlier work
Description: as §4

T cell avatar A_4_7 [7] = conditions: previous characterisation, clone A5.5 (A_4_7); ref [5]; cited from earlier work
Description: as §4

With “EAEDLQVGQVELGGGPGAGSLQPLALEGSLQ [C-peptide, full-length proinsulin C-peptide]” as the substance, how does the “response to full-length C-peptide (Δluciferase)” value (T cell avatar A_4_8 [1]) read?
Its value is “very weak”.

And the “response to full-length C-peptide (Δluciferase)” value (T cell avatar A_4_7 [2])?
The value was “very weak”.

What about the “T cell avatar response (Δluciferase) to native peptide” value [3] of the same substance?
Its value is “did not respond”.

What about the “response to full-length C-peptide (Δluciferase)” value [4] of the same substance?
Its value is “very weak”.

Which HLA-restriction (T cell avatar A_4_6) does the source give for “GQVELGGG-NAVEVLK [HIP-6, previously reported C-peptide-IAPP2 HIP]” here?
Its HLA-restriction is “HLA-DQ8”.

What about the HLA-restriction (T cell avatar A_4_5) of the same substance?
Its HLA-restriction is “HLA-DQ8”.

Which results are given for “REAEDLQVG-VCGERGF [HIP-K, hybrid insulin peptide formed by fusion of proinsulin fragments]”?
HLA restriction (T cell avatar K_4_161; blocking mAbs and single-HLA APC lines, peptide 1.0 μM): DQ8; EC50 (T cell avatar K_4_161; synthetic peptide titration, autologous EBV B cells, NanoLuciferase, triplicate): > 20 µM

What does the source list for VELGGGPGA?
HLA-restriction [5]: HLA-DQ8; HLA-restriction (T cell avatar A_4_8 [6]): HLA-DQ8; HLA-restriction (T cell avatar A_4_7 [7]): HLA-DQ8
